Assay results from patent publication US6831039B1, “3-(heterocyclyl)-substituted benzolpyrazols” (BASF Aktiengesellschaft, priority 1998, dated 2004).

Columns and labels:
Test in all cases: Greenhouse post-emergence herbicidal test
[1] = test system: black nightshade; type: in vivo, Solanum nigrum; conditions: 0.5 or 0.25 kg/ha
Text: (§1) The seeds of the test plants were sown separately for each species. For the post-emergence treatment, the test plants were first grown to a height of 3 to 15 cm, depending on the plant habit, and only then treated with the active compounds which had been suspended or emulsified in water. The test plants were, for this purpose, either sown directly and grown in the same containers, or they were first grown separately as seedlings and transplanted into the test containers a few days prior to treatment. The application rate for the post-emergence treatment was 0.5, 0.25, 0.125 or 0.0625 kg of a.s. (active substance)/ha. Depending on the species, the plants were kept at 10-25° C. or 20-35° C. The test period extended over 2 to 4 weeks. During this time, the plants were tended, and their response to the individual treatments was evaluated. The evaluation was carried out using a scale from 0 to 100. 100 means no emergence of the plants, or complete destruction of at least the aerial parts and 0 means no damage, or normal course of growth. The plants used in the greenhouse experiments were of the following species: [table]

[2] = test system: barnyard grass; type: in vivo, Echinochloa crus galli; conditions: 0.5 or 0.25 kg/ha
Text: as §1

[3] = test system: green foxtail; type: in vivo, Setaria viridis
Text: as §1

[4] = test system: lamb's-quarters; type: in vivo, Chenopodium album; conditions: 0.5 or 0.25 kg/ha
Text: as §1

[5] = test system: pigweed; type: in vivo, Amaranthus retroflexus; conditions: 0.25 or 0.125 kg/ha
Text: as §1

[6] = test system: wild oat; type: in vivo, Avena fatua; conditions: 0.25 or 0.125 kg/ha
Text: as §1

[7] = test system: white mustard; type: in vivo, Sinapis alba; conditions: 0.25 or 0.125 kg/ha
Text: as §1

[8] = test system: lady's-thumb; type: in vivo, Polygonum persicaria; conditions: 0.25 or 0.125 kg/ha
Text: as §1

Cc1nn(C(C)(C)C)c(O)c1C(=O)c1ccc(S(C)(=O)=O)c(C2=NOCC2)c1C [Compound 2.8]
very good: post-emergence control of harmful plants [1] | post-emergence control of harmful plants [2] | post-emergence control of harmful plants ([3]; 0.5 or 0.25 kg/ha) | post-emergence control of harmful plants [4]

Cc1c(C(=O)c2cnn(C(C)C)c2O)ccc(S(C)(=O)=O)c1C1=NOCC1 [Compound 2.9]
very good: post-emergence action on grasses and weeds [5] | post-emergence action on grasses and weeds ([3]; 0.25 or 0.125 kg/ha) | post-emergence action on grasses and weeds [6] | post-emergence action on grasses and weeds [7] | post-emergence action on grasses and weeds [8]
